Experimental findings from ChEMBL document CHEMBL5653631, “A Potent and Selective ULK1 Inhibitor Suppresses Autophagy and Sensitizes Cancer Cells to Nutrient Stress” (iScience, 2018) are described below.

Each structure is given as a SMILES string.

For test [1], the target named is Mitogen-activated protein kinase 11 (Homo sapiens) (UniProt Q15759). The experiment in a line: Inhibition of human recombinant p38beta at 15 nM in presence of ATP by radiometric assay relative to control.
Test [2] concerns the target Death-associated protein kinase 3 (Homo sapiens) (UniProt O43293). The experiment in a line: Inhibition of human recombinant DAPK3 at 40 nM related to control ULK1.
The target in test [3] is MAP/microtubule affinity-regulating kinase 3 (Homo sapiens) (UniProt P27448). The experiment in a line: Inhibition of human recombinant MARK3 at 40 nM related to control ULK1.
Sequence of MAP/microtubule affinity-regulating kinase 3 (Homo sapiens) (P27448 whole entry, looked up): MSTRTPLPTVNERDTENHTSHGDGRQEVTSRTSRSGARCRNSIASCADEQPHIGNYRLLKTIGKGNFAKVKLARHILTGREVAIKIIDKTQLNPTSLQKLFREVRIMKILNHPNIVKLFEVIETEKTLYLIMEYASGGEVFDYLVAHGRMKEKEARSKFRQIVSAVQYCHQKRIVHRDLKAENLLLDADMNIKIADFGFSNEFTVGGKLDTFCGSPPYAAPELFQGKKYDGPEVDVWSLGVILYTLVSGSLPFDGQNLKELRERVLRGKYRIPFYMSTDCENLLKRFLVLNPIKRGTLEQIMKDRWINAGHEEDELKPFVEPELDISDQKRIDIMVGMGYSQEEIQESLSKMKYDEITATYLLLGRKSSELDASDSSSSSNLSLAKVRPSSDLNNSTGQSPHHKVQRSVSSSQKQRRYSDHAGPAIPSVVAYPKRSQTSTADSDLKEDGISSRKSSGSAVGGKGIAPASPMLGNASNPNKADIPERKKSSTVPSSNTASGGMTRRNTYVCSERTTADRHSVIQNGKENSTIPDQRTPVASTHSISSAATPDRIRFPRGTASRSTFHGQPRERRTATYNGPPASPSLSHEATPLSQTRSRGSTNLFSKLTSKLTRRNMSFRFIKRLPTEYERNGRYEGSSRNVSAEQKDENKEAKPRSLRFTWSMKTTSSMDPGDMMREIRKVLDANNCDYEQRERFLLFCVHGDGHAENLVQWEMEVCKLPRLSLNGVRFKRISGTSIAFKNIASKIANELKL
The target of test [4] is T1, Serine/threonine-protein kinase Sgk2 (Homo sapiens) (UniProt Q9HBY8).
T1 sequence (whole entry): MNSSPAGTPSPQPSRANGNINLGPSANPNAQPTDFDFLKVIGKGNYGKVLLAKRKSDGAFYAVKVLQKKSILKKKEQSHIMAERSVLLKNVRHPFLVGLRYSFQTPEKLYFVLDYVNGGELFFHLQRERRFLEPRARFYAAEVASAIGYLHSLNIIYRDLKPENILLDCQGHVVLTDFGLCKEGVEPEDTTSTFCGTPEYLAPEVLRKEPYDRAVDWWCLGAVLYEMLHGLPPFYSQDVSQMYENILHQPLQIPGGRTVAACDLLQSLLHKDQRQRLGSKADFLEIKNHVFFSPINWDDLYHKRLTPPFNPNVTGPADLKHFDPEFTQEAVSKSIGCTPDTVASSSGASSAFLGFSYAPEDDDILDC
Briefly: Inhibition of human recombinant SGK2 at 40 nM related to control ULK1.

Test [5] concerns the target T2, Inhibitor of nuclear factor kappa-B kinase subunit alpha (Homo sapiens) (UniProt O15111).
T2 sequence (whole entry): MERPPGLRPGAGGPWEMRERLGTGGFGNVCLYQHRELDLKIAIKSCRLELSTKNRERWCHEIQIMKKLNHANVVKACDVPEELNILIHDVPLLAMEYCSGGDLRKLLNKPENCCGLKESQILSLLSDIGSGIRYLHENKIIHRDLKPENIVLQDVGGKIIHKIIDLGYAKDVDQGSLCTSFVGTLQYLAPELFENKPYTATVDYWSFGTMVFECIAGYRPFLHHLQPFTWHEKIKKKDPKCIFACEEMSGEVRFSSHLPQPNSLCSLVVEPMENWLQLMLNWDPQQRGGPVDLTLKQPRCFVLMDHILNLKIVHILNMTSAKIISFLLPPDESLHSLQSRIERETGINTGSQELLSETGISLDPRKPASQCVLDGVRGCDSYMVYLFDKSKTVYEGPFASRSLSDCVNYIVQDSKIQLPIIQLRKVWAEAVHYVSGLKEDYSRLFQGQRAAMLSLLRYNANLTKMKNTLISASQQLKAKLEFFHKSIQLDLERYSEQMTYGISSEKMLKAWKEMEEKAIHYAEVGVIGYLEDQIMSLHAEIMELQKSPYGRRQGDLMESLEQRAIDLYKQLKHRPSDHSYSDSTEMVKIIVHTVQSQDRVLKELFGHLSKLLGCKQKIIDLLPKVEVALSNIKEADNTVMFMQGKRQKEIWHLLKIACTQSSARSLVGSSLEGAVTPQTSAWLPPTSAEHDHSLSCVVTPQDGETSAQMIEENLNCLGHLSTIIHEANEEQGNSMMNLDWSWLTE
Briefly: Inhibition of human recombinant IKKa at 40 nM in presence of ATP by radiometric assay relative to control.

The target in test [6] is T3, Serine/threonine-protein kinase tousled-like 1 (Homo sapiens) (UniProt Q9UKI8).
T3 sequence (whole entry): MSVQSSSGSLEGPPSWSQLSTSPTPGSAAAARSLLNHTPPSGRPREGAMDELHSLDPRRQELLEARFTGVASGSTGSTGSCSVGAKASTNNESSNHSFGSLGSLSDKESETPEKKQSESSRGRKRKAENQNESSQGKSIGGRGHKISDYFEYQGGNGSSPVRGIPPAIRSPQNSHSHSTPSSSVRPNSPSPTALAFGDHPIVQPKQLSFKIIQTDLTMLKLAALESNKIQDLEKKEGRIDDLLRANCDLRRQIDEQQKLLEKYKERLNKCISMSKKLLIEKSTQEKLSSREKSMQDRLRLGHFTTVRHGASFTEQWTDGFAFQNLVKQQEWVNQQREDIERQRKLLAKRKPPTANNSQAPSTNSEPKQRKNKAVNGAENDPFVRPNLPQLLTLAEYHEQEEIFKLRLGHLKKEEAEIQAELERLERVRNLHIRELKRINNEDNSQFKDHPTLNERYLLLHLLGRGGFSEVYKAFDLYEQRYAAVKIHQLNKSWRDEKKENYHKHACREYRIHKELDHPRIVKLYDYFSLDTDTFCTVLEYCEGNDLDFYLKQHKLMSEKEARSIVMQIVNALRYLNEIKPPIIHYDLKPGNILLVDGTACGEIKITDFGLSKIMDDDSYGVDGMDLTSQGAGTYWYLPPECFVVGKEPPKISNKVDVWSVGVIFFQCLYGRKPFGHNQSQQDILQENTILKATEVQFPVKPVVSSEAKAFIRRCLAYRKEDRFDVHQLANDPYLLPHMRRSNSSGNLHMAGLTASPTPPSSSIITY
The experiment in a line: Inhibition of human recombinant TLK1 at 40 nM in presence of ATP by radiometric assay relative to control.

The target in test [7] is Cyclin-dependent kinase 2 (Homo sapiens) (UniProt P24941). The experiment in a line: Inhibition of human recombinant CDK2 at 500 nM in presence of ATP by radiometric assay relative to control.
The target of test [8] is Dual specificity tyrosine-phosphorylation-regulated kinase 1A (Homo sapiens) (UniProt Q13627). The experiment in a line: Inhibition of human recombinant DYRK1A at 500 nM related to control ULK1.
In test [9] the target is Serine/threonine-protein kinase WNK1 (Homo sapiens) (UniProt Q9H4A3). The experiment in a line: Inhibition of human recombinant Wnk1 at 500 nM related to control ULK1.
Sequence of Serine/threonine-protein kinase WNK1 (Homo sapiens) (Q9H4A3 whole entry, looked up): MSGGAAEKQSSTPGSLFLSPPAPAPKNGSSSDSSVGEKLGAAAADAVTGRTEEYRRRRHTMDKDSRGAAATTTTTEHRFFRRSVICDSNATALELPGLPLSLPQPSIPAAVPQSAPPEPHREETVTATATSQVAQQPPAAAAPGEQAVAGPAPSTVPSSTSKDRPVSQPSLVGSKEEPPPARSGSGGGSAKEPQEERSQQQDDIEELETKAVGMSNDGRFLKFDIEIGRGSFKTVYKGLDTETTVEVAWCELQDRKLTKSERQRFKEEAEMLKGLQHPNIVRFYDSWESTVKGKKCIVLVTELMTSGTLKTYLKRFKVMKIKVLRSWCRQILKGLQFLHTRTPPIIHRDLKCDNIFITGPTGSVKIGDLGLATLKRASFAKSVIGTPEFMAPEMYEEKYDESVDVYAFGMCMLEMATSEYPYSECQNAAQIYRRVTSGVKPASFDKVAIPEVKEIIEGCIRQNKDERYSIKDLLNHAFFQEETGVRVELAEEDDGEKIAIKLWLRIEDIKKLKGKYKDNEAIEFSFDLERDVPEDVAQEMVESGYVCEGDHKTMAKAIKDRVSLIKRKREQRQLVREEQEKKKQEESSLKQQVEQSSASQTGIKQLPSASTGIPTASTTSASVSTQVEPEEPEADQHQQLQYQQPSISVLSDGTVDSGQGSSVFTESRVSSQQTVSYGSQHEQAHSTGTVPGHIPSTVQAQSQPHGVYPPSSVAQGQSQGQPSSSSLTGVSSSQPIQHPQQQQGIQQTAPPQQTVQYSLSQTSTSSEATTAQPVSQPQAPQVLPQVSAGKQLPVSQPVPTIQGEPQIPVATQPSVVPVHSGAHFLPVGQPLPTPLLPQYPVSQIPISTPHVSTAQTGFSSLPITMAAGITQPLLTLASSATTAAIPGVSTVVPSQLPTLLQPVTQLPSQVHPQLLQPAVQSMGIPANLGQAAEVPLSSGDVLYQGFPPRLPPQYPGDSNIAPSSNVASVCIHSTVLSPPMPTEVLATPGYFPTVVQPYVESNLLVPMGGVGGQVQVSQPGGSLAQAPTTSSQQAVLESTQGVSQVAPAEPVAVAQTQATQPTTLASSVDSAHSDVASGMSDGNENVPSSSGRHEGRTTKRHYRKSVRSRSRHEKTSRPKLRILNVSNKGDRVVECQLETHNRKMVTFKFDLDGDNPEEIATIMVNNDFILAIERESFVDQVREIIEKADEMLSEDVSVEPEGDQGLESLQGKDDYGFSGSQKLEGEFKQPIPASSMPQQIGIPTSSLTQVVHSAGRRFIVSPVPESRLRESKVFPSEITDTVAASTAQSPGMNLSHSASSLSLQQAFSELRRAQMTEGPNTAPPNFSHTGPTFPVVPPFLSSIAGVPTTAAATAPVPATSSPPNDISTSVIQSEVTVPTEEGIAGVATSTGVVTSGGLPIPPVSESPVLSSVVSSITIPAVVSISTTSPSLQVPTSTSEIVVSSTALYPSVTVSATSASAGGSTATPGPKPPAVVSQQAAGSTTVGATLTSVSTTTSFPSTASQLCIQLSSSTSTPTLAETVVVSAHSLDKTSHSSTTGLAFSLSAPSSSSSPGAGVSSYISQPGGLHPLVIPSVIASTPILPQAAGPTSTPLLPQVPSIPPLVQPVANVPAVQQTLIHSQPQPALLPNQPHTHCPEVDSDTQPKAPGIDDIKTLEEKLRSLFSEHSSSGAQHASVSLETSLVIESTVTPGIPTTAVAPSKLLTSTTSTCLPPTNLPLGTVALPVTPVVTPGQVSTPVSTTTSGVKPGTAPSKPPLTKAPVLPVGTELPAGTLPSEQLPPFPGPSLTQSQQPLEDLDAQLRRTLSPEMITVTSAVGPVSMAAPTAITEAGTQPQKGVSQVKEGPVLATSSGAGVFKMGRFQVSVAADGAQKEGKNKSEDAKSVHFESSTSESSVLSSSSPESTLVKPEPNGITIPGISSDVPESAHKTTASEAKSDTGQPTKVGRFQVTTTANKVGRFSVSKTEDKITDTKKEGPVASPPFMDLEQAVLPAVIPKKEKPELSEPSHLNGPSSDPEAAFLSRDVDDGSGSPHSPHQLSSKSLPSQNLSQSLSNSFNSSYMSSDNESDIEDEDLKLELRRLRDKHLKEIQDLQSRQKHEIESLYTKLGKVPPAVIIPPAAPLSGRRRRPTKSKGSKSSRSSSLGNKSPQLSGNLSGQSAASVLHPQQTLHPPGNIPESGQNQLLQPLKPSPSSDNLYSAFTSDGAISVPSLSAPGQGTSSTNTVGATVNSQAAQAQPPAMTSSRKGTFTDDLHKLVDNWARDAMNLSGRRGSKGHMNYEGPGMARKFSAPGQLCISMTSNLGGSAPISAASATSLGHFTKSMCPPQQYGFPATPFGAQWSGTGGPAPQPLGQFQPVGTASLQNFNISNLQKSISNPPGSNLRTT
For test [10], the target named is T4, Calcium/calmodulin-dependent protein kinase type IV (Homo sapiens) (UniProt Q16566).
T4 sequence (whole entry): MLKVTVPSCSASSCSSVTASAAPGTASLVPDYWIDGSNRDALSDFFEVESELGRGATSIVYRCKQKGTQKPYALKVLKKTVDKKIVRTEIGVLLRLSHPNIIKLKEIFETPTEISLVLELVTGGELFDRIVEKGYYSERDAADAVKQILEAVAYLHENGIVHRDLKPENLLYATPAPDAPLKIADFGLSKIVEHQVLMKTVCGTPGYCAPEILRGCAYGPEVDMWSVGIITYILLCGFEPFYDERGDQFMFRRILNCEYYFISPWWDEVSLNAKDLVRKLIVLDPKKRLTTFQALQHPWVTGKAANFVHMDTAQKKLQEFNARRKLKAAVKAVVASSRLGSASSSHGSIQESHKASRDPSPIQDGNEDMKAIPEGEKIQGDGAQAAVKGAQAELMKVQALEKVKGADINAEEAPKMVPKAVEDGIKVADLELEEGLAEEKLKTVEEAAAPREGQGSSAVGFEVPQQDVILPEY
The experiment in a line: Inhibition of human recombinant CaMK4 at 500 nM related to control ULK1.

The inhibition is the relative decrease from the control value, in per cent.

Sequence of Death-associated protein kinase 3 (Homo sapiens) (O43293 whole entry, looked up): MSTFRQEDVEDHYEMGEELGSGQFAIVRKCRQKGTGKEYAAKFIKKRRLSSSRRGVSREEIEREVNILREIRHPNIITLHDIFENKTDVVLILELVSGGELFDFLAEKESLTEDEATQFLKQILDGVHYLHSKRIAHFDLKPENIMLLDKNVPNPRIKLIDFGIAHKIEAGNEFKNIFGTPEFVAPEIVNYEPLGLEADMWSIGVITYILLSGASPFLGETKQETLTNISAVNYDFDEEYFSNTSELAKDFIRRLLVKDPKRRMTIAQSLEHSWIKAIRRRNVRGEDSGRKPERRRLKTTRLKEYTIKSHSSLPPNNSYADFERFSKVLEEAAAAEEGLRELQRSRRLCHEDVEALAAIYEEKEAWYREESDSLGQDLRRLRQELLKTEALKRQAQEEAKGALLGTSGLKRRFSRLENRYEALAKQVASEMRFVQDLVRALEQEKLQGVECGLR
Sequence of Mitogen-activated protein kinase 11 (Homo sapiens) (Q15759 whole entry): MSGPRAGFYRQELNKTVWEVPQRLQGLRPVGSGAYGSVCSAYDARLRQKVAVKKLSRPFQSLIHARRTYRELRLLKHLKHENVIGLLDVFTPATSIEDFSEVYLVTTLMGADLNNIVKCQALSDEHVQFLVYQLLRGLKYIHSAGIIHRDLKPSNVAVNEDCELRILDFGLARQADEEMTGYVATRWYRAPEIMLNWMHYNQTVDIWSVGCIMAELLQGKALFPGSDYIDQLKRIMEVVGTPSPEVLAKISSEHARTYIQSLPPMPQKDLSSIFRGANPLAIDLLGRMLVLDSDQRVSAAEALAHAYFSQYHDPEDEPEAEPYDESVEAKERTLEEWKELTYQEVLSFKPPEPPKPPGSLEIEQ

On to `CC(C)[C@H](NC(=O)c1cc(-c2cnn3cc(-c4ccc(OCCN5CCCCC5)cc4)cnc23)cs1)C(F)(F)F`, for which the inhibition in [1] came to 1%.
On to `O=C(N[C@@H](C1CC1)C(F)(F)F)c1cc(-c2cnn3cc(-c4ccc(F)cc4)cnc23)cs1`, for which the fold change (FC) in [2] is 0.11; in [3], 0.21; in test [4], 0.16. Further, the inhibition in test [5] and in test [6] was 0% throughout.
Take `CNC(=O)c1ccccc1Oc1nc(Nc2cc(OC)c(OC)c(OC)c2)ncc1Br`: the inhibition in [7] was 4%. Moreover, the fold change (FC) in test [8] was found to be 0.01; in test [9], 0; in test [10] it was 0.
